Data published in PubChem BioAssay AID248 (DTP/NCI, 2004).
Values joined by “and” are separate entries in the source; they are usually repeats but may differ in a detail not shown here. Identical values can stand only once. Toxic doses and inconclusive results are not listed. Rule as the data show it: active = T/C of 150% or more; inactive = T/C below 125%.

Tested on: L1210 leukemia ip in BDF1 mice, survival T/C
Experiment: NCI In Vivo Anticancer Drug Screen. Data for tumor model L1210 Leukemia (intraperitoneal) in B6D2F1 (BDF1) mice
Settings: endpoint: mean survival time, higher = longer survival
Summary of the method: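 Tumor was transplanted into mice, which were then dosed with test compound or vehicle alone. Survival was recorded for each group, and the treated figure was expressed relative to the control figure.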

Measured: T/C

O=C1NC(c2cccc3ccccc23)Nc2ccccc21 (centres undefined)
inactive: dose: 12.5 mg/kg/injection, schedule: Q01DX009 (oral), vehicle: Klucel (hydroxypropylcellulose) (HPC) 111 % of control | dose: 12.5 mg/kg/injection, schedule: Q01DX009 (oral), vehicle: methylcellulose (MC) 103 % of control and 109 % of control | dose: 16.0 mg/kg/injection, schedule: Q01DX009 (ip), vehicle: Klucel (hydroxypropylcellulose) (HPC) 100 % of control | dose: 16.0 mg/kg/injection, schedule: Q01DX009 (sc), vehicle: Klucel (hydroxypropylcellulose) (HPC) 98 % of control | dose: 16.0 mg/kg/injection, schedule: Q03HX008 (ip), vehicle: Klucel (hydroxypropylcellulose) (HPC) 109 % of control | dose: 16.0 mg/kg/injection, schedule: Q03HX016 (ip), vehicle: Klucel (hydroxypropylcellulose) (HPC) 104 % of control | dose: 16.0 mg/kg/injection, schedule: Q03HX024 (ip), vehicle: Klucel (hydroxypropylcellulose) (HPC) 102 % of control | dose: 32.0 mg/kg/injection, schedule: Q01DX009 (ip), vehicle: Klucel (hydroxypropylcellulose) (HPC) 98 % of control | dose: 32.0 mg/kg/injection, schedule: Q01DX009 (sc), vehicle: Klucel (hydroxypropylcellulose) (HPC) 102 % of control | dose: 40.0 mg/kg/injection, schedule: Q01DX009 (ip), vehicle: methylcellulose (MC) 110 % of control | dose: 40.0 mg/kg/injection, schedule: Q01DX009 (ip), vehicle: other 107 % of control | dose: 40.0 mg/kg/injection, schedule: Q01DX009 (oral), vehicle: Klucel (hydroxypropylcellulose) (HPC) 98 % of control and 100 % of control | dose: 40.0 mg/kg/injection, schedule: Q01DX009 (oral), vehicle: methylcellulose (MC) 110 % of control | dose: 50.0 mg/kg/injection, schedule: Q01DX009 (oral), vehicle: other 106 % of control | dose: 60.0 mg/kg/injection, schedule: Q01DX009 (oral), vehicle: Klucel (hydroxypropylcellulose) (HPC) 100 % of control and 104 % of control | dose: 60.0 mg/kg/injection, schedule: Q01DX009 (oral), vehicle: methylcellulose (MC) 103 % of control | dose: 62.5 mg/kg/injection, schedule: Q01DX005 (oral), vehicle: saline 97 % of control | dose: 62.5 mg/kg/injection, schedule: Q01DX009 (oral), vehicle: saline 97 % of control | dose: 62.5 mg/kg/injection, schedule: Q01DX009 (oral), vehicle: water 104 % of control | dose: 62.5 mg/kg/injection, schedule: Q04DX003 (oral), vehicle: saline 105 % of control | dose: 64.0 mg/kg/injection, schedule: Q01DX009 (ip), vehicle: Klucel (hydroxypropylcellulose) (HPC) 108 % of control | dose: 64.0 mg/kg/injection, schedule: Q01DX009 (sc), vehicle: Klucel (hydroxypropylcellulose) (HPC) 97 % of control | dose: 80.0 mg/kg/injection, schedule: Q01DX009 (ip), vehicle: methylcellulose (MC) 101 % of control | dose: 80.0 mg/kg/injection, schedule: Q01DX009 (oral), vehicle: Klucel (hydroxypropylcellulose) (HPC) 109 % of control | dose: 80.0 mg/kg/injection, schedule: Q01DX009 (oral), vehicle: methylcellulose (MC) 105 % of control and 110 % of control | dose: 100.0 mg/kg/injection, schedule: Q01DX009 (oral), vehicle: Klucel (hydroxypropylcellulose) (HPC) 100 % of control | dose: 100.0 mg/kg/injection, schedule: Q01DX009 (oral), vehicle: saline 104 % of control and 106 % of control | dose: 100.0 mg/kg/injection, schedule: Q04DX003 (ip), vehicle: other 103 % of control | dose: 100.0 mg/kg/injection, schedule: Q04DX003 (oral), vehicle: Klucel (hydroxypropylcellulose) (HPC) 98 % of control and 104 % of control | dose: 100.0 mg/kg/injection, schedule: Q04DX003 (oral), vehicle: methylcellulose (MC) 104 % of control and 107 % of control | dose: 100.0 mg/kg/injection, schedule: Q04DX003 (oral), vehicle: other 105 % of control | dose: 120.0 mg/kg/injection, schedule: Q01DX009 (oral), vehicle: Klucel (hydroxypropylcellulose) (HPC) 104 % of control | dose: 120.0 mg/kg/injection, schedule: Q01DX009 (oral), vehicle: methylcellulose (MC) 98 % of control | dose: 125.0 mg/kg/injection, schedule: Q01DX005 (oral), vehicle: saline 110 % of control | dose: 125.0 mg/kg/injection, schedule: Q01DX009 (oral), vehicle: Klucel (hydroxypropylcellulose) (HPC) 105 % of control | dose: 125.0 mg/kg/injection, schedule: Q01DX009 (oral), vehicle: saline 103 % of control | dose: 125.0 mg/kg/injection, schedule: Q04DX003 (oral), vehicle: saline 102 % of control | dose: 125.0 mg/kg/injection, schedule: Q04DX003 (oral), vehicle: water 106 % of control | dose: 125.0 mg/kg/injection, schedule: Q07DX002 (ip), vehicle: water 103 % of control | dose: 128.0 mg/kg/injection, schedule: Q01DX001 (ip), vehicle: Klucel (hydroxypropylcellulose) (HPC) 103 % of control | dose: 128.0 mg/kg/injection, schedule: Q01DX001 (sc), vehicle: Klucel (hydroxypropylcellulose) (HPC) 100 % of control | dose: 128.0 mg/kg/injection, schedule: Q01DX009 (ip), vehicle: Klucel (hydroxypropylcellulose) (HPC) 94 % of control | dose: 128.0 mg/kg/injection, schedule: Q01DX009 (sc), vehicle: Klucel (hydroxypropylcellulose) (HPC) 103 % of control | dose: 128.0 mg/kg/injection, schedule: Q04DX003 (ip), vehicle: Klucel (hydroxypropylcellulose) (HPC) 99 % of control | dose: 128.0 mg/kg/injection, schedule: Q08DX002 (ip), vehicle: Klucel (hydroxypropylcellulose) (HPC) 97 % of control | dose: 140.0 mg/kg/injection, schedule: Q01DX009 (ip), vehicle: other 104 % of control | dose: 140.0 mg/kg/injection, schedule: Q01DX009 (oral), vehicle: Klucel (hydroxypropylcellulose) (HPC) 104 % of control and 105 % of control | dose: 140.0 mg/kg/injection, schedule: Q01DX009 (oral), vehicle: methylcellulose (MC) 109 % of control and 111 % of control | dose: 150.0 mg/kg/injection, schedule: Q01DX009 (oral), vehicle: Klucel (hydroxypropylcellulose) (HPC) 107 % of control | dose: 150.0 mg/kg/injection, schedule: Q01DX009 (oral), vehicle: other 108 % of control | dose: 150.0 mg/kg/injection, schedule: Q01DX009 (oral), vehicle: saline 108 % of control | dose: 150.0 mg/kg/injection, schedule: Q04DX003 (ip), vehicle: other 98 % of control | dose: 150.0 mg/kg/injection, schedule: Q04DX003 (oral), vehicle: Klucel (hydroxypropylcellulose) (HPC) 107 % of control and 111 % of control | dose: 150.0 mg/kg/injection, schedule: Q04DX003 (oral), vehicle: methylcellulose (MC) 104 % of control and 105 % of control | dose: 175.0 mg/kg/injection, schedule: Q01DX009 (oral), vehicle: methylcellulose (MC) 105 % of control and 108 % of control | dose: 200.0 mg/kg/injection, schedule: Q04DX003 (ip), vehicle: other 96 % of control | dose: 200.0 mg/kg/injection, schedule: Q04DX003 (oral), vehicle: Klucel (hydroxypropylcellulose) (HPC) 95 % of control and 104 % of control | dose: 200.0 mg/kg/injection, schedule: Q04DX003 (oral), vehicle: methylcellulose (MC) 98 % of control and 104 % of control | dose: 200.0 mg/kg/injection, schedule: Q04DX003 (oral), vehicle: other 108 % of control | dose: 225.0 mg/kg/injection, schedule: Q01DX009 (oral), vehicle: methylcellulose (MC) 110 % of control | dose: 250.0 mg/kg/injection, schedule: Q01DX005 (oral), vehicle: saline 107 % of control | dose: 250.0 mg/kg/injection, schedule: Q01DX009 (oral), vehicle: saline 103 % of control | dose: 250.0 mg/kg/injection, schedule: Q04DX003 (ip), vehicle: Klucel (hydroxypropylcellulose) (HPC) 103 % of control | dose: 250.0 mg/kg/injection, schedule: Q04DX003 (oral), vehicle: Klucel (hydroxypropylcellulose) (HPC) 108 % of control | dose: 250.0 mg/kg/injection, schedule: Q04DX003 (oral), vehicle: methylcellulose (MC) 103 % of control and 104 % of control | dose: 250.0 mg/kg/injection, schedule: Q04DX003 (oral), vehicle: saline 105 % of control | dose: 250.0 mg/kg/injection, schedule: Q04DX003 (oral), vehicle: water 104 % of control | dose: 250.0 mg/kg/injection, schedule: Q07DX002 (ip), vehicle: water 97 % of control | dose: 256.0 mg/kg/injection, schedule: Q01DX001 (ip), vehicle: Klucel (hydroxypropylcellulose) (HPC) 103 % of control | dose: 256.0 mg/kg/injection, schedule: Q01DX001 (sc), vehicle: Klucel (hydroxypropylcellulose) (HPC) 101 % of control | dose: 256.0 mg/kg/injection, schedule: Q01DX009 (sc), vehicle: Klucel (hydroxypropylcellulose) (HPC) 94 % of control | dose: 256.0 mg/kg/injection, schedule: Q04DX003 (ip), vehicle: Klucel (hydroxypropylcellulose) (HPC) 111 % of control | dose: 256.0 mg/kg/injection, schedule: Q08DX002 (ip), vehicle: Klucel (hydroxypropylcellulose) (HPC) 111 % of control | dose: 300.0 mg/kg/injection, schedule: Q04DX003 (ip), vehicle: Klucel (hydroxypropylcellulose) (HPC) 94 % of control | dose: 300.0 mg/kg/injection, schedule: Q04DX003 (oral), vehicle: Klucel (hydroxypropylcellulose) (HPC) 109 % of control and 111 % of control | dose: 300.0 mg/kg/injection, schedule: Q04DX003 (oral), vehicle: methylcellulose (MC) 108 % of control | dose: 500.0 mg/kg/injection, schedule: Q01DX005 (oral), vehicle: saline 107 % of control | dose: 500.0 mg/kg/injection, schedule: Q01DX009 (oral), vehicle: saline 110 % of control | dose: 500.0 mg/kg/injection, schedule: Q04DX003 (oral), vehicle: saline 108 % of control | dose: 500.0 mg/kg/injection, schedule: Q04DX003 (oral), vehicle: water 107 % of control | dose: 512.0 mg/kg/injection, schedule: Q01DX001 (sc), vehicle: Klucel (hydroxypropylcellulose) (HPC) 102 % of control | dose: 1000.0 mg/kg/injection, schedule: Q01DX005 (oral), vehicle: saline 108 % of control | dose: 1000.0 mg/kg/injection, schedule: Q04DX003 (oral), vehicle: saline 105 % of control | dose: 1024.0 mg/kg/injection, schedule: Q01DX001 (sc), vehicle: Klucel (hydroxypropylcellulose) (HPC) 100 % of control
